This test has as its target Human immunodeficiency virus 2. Description: In vitro inhibition of cytopathic effect was determined against HIV-2 ROD in MT-4 cells using MTT cytoprotection assay. For orientation: Damage to the host cells serves as the signal in cytopathic effect assays.

Each structure is given as a SMILES string.

One may read the EC50 as the concentration giving half of the maximal effect.

On to `CC(C)CCCC(C)[C@H]1CCC2C3CCC4C[C@@H](CCC=C(c5cc(Cl)c(O)c(C(=O)N[C@@H](CCC(=O)O)C(=O)O)c5)c5cc(Cl)c(O)c(C(=O)N[C@@H](CCC(=O)O)C(=O)O)c5)CC[C@]4(C)C3CC[C@@]21C` (stereo not given in full) [2-(3-Chloro-5-{1-[3-chloro-5-(1,3-dicarboxy-propylcarbamoyl)-4-hydroxy-phenyl]-4-[17-(1,5-dimethyl-hexyl)-10,13-dimethyl-hexadecahydro-cyclopenta[a]phenanthren-3-yl]-but-1-enyl}-2-hydroxy-benzoylamino)-pentanedioic acid], for which the midpoint of the response, the EC50, lay at 69.6 µM.
To `CC(C)CCCC(C)[C@H]1CCC2C3CCC4C[C@@H](CCCC(c5cc(Cl)c(O)c(C(=O)N[C@@H](CCC(=O)O)C(=O)O)c5)c5cc(Cl)c(O)c(C(=O)N[C@@H](CCC(=O)O)C(=O)O)c5)CC[C@]4(C)C3CC[C@@]21C` (stereo not given in full) [2-(3-Chloro-5-{1-[3-chloro-5-(1,3-dicarboxy-propylcarbamoyl)-4-hydroxy-phenyl]-4-[17-(1,5-dimethyl-hexyl)-10,13-dimethyl-hexadecahydro-cyclopenta[a]phenanthren-3-yl]-butyl}-2-hydroxy-benzoylamino)-pentanedioic acid] belongs 73 µM; to `CC(C)CCCC(C)[C@H]1CCC2C3CCC4C[C@@H](CCC=C(c5cc(Cl)c(O)c(C(=O)N[C@@H](Cc6ccccc6)C(=O)O)c5)c5cc(Cl)c(O)c(C(=O)N[C@@H](Cc6ccccc6)C(=O)O)c5)CC[C@]4(C)C3CC[C@@]21C` (stereo partly drawn) [2-(5-{1-{3-[1-carboxy-2-phenyl-(1S)-ethylcarbamoyl]-5-chloro-4-hydroxyphenyl}-4-[1-(1,5-dimethylhexyl)-9a,11a-dimethylperhydrocyclopenta[a]phenanthren-7-yl]-1-butenyl}-3-chloro-2-hydroxyphenylcarboxamido)-3-phenyl-(2S)-propanoic acid], more than 62 µM; to `CC(C)CCCC(C)[C@H]1CCC2C3CCC4C[C@@H](CCC=C(c5cc(Cl)c(OCc6ccc(-c7cccc(C(=O)O)c7)cc6)c(C(=O)O)c5)c5cc(Cl)c(OCc6ccc(-c7cccc(C(=O)O)c7)cc6)c(C(=O)O)c5)CC[C@]4(C)C3CC[C@@]21C` (stereo partly drawn) [3'',3'''-Dichloro-5'',5'''-dicarboxy-4'',4'''-di[p-(3-carboxy-phenyl)benzyloxy]-4',4'-diphenyl-3beta-(3'-buten-1-yl)cholestane], more than 95 µM.
The figure for `CC(C)CCCC(C)[C@H]1CCC2C3CCC4C[C@@H](CCC=C(c5cc(Cl)c(OCc6ccc(-c7ccc(C(=O)O)cc7)cc6)c(C(=O)O)c5)c5cc(Cl)c(OCc6ccc(-c7ccc(C(=O)O)cc7)cc6)c(C(=O)O)c5)CC[C@]4(C)C3CC[C@@]21C` (stereo partly drawn) [3'',3'''-Dichloro-5'',5'''-dicarboxy-4'',4'''-di[p-(4-carboxy-phenyl)benzyloxy]-4',4'-diphenyl-3beta-(3'-buten-1-yl)cholestane] is more than 100 µM.
To `CC(C)CCCC(C)[C@H]1CCC2C3CCC4C[C@@H](CCC=C(c5cc(Cl)c(OCc6ccc(CC(=O)O)cc6)c(C(=O)O)c5)c5cc(Cl)c(OCc6ccc(CC(=O)O)cc6)c(C(=O)O)c5)CC[C@]4(C)C3CC[C@@]21C` (stereo partly drawn) [3'',3'''-Dichloro-5'',5'''-dicarboxy-4'',4'''-di[p-(carboxymethyl)benzyloxy]-4',4'-diphenyl-3beta-(3'-buten-1-yl)cholestane] belongs 83.8 µM; to `CC(C)CCCC(C)[C@H]1CCC2C3CCC4C[C@@H](CCCC(c5cc(Cl)c(OCc6ccc(C(=O)O)cc6)c(C(=O)O)c5)c5cc(Cl)c(OCc6ccc(C(=O)O)cc6)c(C(=O)O)c5)CC[C@]4(C)C3CC[C@@]21C` (stereo partly drawn) [3'',3'''-Dichloro-5'',5'''-dicarboxy-4'',4'''-di[p-carboxybenzyloxy]-4',4'-diphenyl-3beta-(1-butyl)cholestane], 70.4 µM.
Consider `CC(C)CCCC(C)[C@H]1CCC2C3CCC4C[C@@H](CCC=C(c5cc(Cl)c(O)c(C(=O)NCCC(=O)O)c5)c5cc(Cl)c(O)c(C(=O)NCCC(=O)O)c5)CC[C@]4(C)C3CC[C@@]21C` (stereo not given in full) [3-(5-{1-[3-(2-Carboxy-ethylcarbamoyl)-5-chloro-4-hydroxy-phenyl]-4-[17-(1,5-dimethyl-hexyl)-10,13-dimethyl-hexadecahydro-cyclopenta[a]phenanthren-3-yl]-but-1-enyl}-3-chloro-2-hydroxy-benzoylamino)-propionic acid], for which a half-maximal effect (EC50) was put at 120 µM.
To `CC(C)CCCC(C)[C@H]1CCC2C3CCC4C[C@@H](CCC=C(c5cc(Cl)c(O)c(C(=O)O)c5)c5cc(Cl)c(O)c(C(=O)O)c5)CC[C@]4(C)C3CC[C@@]21C` (stereo partly drawn) [5-{1-(3-carboxy-5-chloro-4-hydroxyphenyl)-4-[1-(1,5-dimethylhexyl)-9a,11a-dimethyl-(9aS,11aR)-perhydrocyclopenta[a]phenanthren-7-yl]-1-butenyl}-3-chloro-2-hydroxybenzoic acid] belongs 4 µM; to `CC(C)CCCC(C)[C@H]1CCC2C3CCC4C[C@@H](CCC=C(c5cc(Cl)c(O)c(C(=O)N[C@@H](CC(=O)O)C(=O)O)c5)c5cc(Cl)c(O)c(C(=O)N[C@@H](CC(=O)O)C(=O)O)c5)CC[C@]4(C)C3CC[C@@]21C` (stereo partly drawn) [(S)-2-(3-Chloro-5-{1-[3-chloro-5-((S)-1,2-dicarboxy-ethylcarbamoyl)-4-hydroxy-phenyl]-4-[(3S,10S,13R,17R)-17-(1,5-dimethyl-hexyl)-10,13-dimethyl-hexadecahydro-cyclopenta[a]phenanthren-3-yl]-but-1-enyl}-2-hydroxy-benzoylamino)-succinic acid], 122 µM; to `CC(C)CCCC(C)[C@H]1CCC2C3CCC4C[C@@H](CCC=C(c5cc(Cl)c(OCc6ccc(C(=O)O)cc6)c(C(=O)O)c5)c5cc(Cl)c(OCc6ccc(C(=O)O)cc6)c(C(=O)O)c5)CC[C@]4(C)C3CC[C@@]21C` (stereo not given in full) [Cosalane analogue], 22 µM.
In the case of `CC(C)CCCC(C)[C@H]1CCC2C3CCC4C[C@@H](CCC=C(c5cc(Cl)c(OCc6cccc(C(=O)O)c6)c(C(=O)O)c5)c5cc(Cl)c(OCc6cccc(C(=O)O)c6)c(C(=O)O)c5)CC[C@]4(C)C3CC[C@@]21C` (stereo not given in full) [Cosalane analogue], the EC50 is more than 29 µM.
As for `CC(C)CCCC(C)[C@H]1CCC2C3CCC4C[C@@H](CCC=C(c5cc(Cl)c(OCc6ccccc6C(=O)O)c(C(=O)O)c5)c5cc(Cl)c(OCc6ccccc6C(=O)O)c(C(=O)O)c5)CC[C@]4(C)C3CC[C@@]21C` (stereo not given in full) [Cosalane analogue], the EC50 was more than 37 µM.
To `COc1c(Cl)cc(Cc2cc(C(=CCC[C@H]3CC[C@@]4(C)C(CCC5C4CC[C@@]4(C)C5CC[C@@H]4C(C)CCCC(C)C)C3)c3cc(Cc4cc(Cl)c(OC)c(C(=O)O)c4)c(OC)c(C(=O)O)c3)cc(C(=O)O)c2OC)cc1C(=O)O` (stereo not given in full) [Cosalane analogue] belongs 19.9 µM; to `COc1ccc(C(=O)Nc2cc(C(=CCC[C@H]3CC[C@@]4(C)C(CCC5C4CC[C@@]4(C)C5CC[C@@H]4C(C)CCCC(C)C)C3)c3cc(NC(=O)c4ccc(OC)c(C(=O)O)c4)c(OC)c(C(=O)O)c3)cc(C(=O)O)c2OC)cc1C(=O)O` (stereo not given in full) [Cosalane analogue], more than 66 µM.

The values are drawn from BindingDB's records for doi:10.1021/jm000290u (Purdue University, 2001).
